According to US20260085071A1, “NOVEL CRYSTALLINE FORM OF 1-(8-BROMOPYRIDO[2,3- E][1,2,4]TRIAZOLO[4,3-A]PYRAZIN-4-YL)-NMETHYLAZETIDIN- 3-AMINE” (JW PHARMACEUTICAL CORPORATION, priority 2022, published 2026):

How the values were obtained:
histamine 4 receptor = histamine 4 receptor (Homo sapiens, UniProt Q9H3N8); conditions: background statement, U.S. Pat. No. 9,586,959; cited from earlier work
[1] = system: inflammatory cells such as mast cells and eosinophils; conditions: background statement, U.S. Pat. No. 9,586,959; cited from earlier work
[2] = Thermodynamic (thermal) stability of crystalline form; format: physicochemical; conditions: solid crystalline form
Description: TGA experiments were conducted using a TGA550 instrument from TA Instruments. About 1-10 mg of sample was loaded into a ceramic pan for the measurements. The sample temperature was ramped from 25 to 500° C. at 10° C./min. Nitrogen was used as the purge gas at a flow rate of 50 mL/min.
DSC: Heating rate of 10° C./min under a nitrogen atmosphere. About 1-2 mg of sample was loaded into an open aluminum pan for the measurements. Instrument Q20 from TA Instruments.

[3] = Stress testing at high temperature and high humidity; format: physicochemical; conditions: high temperature (60° C.) and high humidity (75%) for 4 weeks
[4] = Stability of polymorphic form during gentle drying; format: physicochemical; conditions: pure polymorphic forms from crystallization experiments

Chain of histamine 4 receptor (Q9H3N8 whole entry): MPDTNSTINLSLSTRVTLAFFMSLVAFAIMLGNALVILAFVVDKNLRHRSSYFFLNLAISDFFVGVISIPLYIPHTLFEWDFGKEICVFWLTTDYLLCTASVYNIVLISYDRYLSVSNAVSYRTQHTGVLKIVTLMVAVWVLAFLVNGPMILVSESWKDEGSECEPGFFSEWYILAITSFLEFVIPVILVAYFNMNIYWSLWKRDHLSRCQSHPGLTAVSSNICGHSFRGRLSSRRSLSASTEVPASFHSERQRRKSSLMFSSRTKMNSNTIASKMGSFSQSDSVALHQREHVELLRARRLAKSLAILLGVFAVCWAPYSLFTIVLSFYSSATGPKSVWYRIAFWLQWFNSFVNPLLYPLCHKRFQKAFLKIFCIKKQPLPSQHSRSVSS

For `CNC1CN(c2nc3ncc(Br)cc3n3cnnc23)C1` [1-(8-bromopyrido[2,3-e][1,2,4]triazolo[4,3-a]pyrazin-4-yl)-N-methylazetidin-3-amine], the “histamine 4 receptor inhibitory effect” value (histamine 4 receptor) is given as “strong” and the “effects against histamine induced infiltration of inflammatory cells” value [1] is given as “suppressive effects”.

In the case of `CNC1CN(c2nc3ncc(Br)cc3n3cnnc23)C1` [Form A, 1-(8-bromopyrido[2,3-e][1,2,4]triazolo[4,3-a]pyrazin-4-yl)-N-methylazetidine-3-amine], the “thermodynamically stable up to” value [2] is reported as “up to 273 °C”, the “stability during stress testing” value [3] is reported as “stable” and the “stability during gentle drying” value [4] is reported as “stable”.
